Assay [1] addresses High affinity nerve growth factor receptor (Homo sapiens) (UniProt P04629). The assay is described as follows: Inhibition of human TRKA using poly[Glu:Tyr] (4:1) as substrate at 1 uM in presence of 32P-ATP by Hotspot assay relative to control.
Assay [2] has as its target Misshapen-like kinase 1 (Homo sapiens) (UniProt Q8N4C8). The assay is described as follows: Residual activity of human MINK/MINK1 using myelin basic protein as substrate at 1 uM in presence of 32P-ATP by Hotspot assay relative to control.
Assay [3] deals with Mitogen-activated protein kinase 10 (Homo sapiens) (UniProt P53779). The assay is described as follows: Inhibition of human JNK3 using ATF2 as substrate at 1 uM in presence of 32P-ATP by Hotspot assay relative to control; values are per cent of control.
Assay [4] has as its target Serine/threonine-protein kinase PAK 6 (Homo sapiens) (UniProt Q9NQU5). The assay is described as follows: Inhibition of human PAK6 using RRRLSFAEPG as substrate at 1 uM in presence of 32P-ATP by Hotspot assay relative to control; values are per cent of control.
The target in assay [5] is Serine/threonine-protein kinase B-raf (Homo sapiens) (UniProt P15056). The assay is described as follows: Inhibition of human BRAF using MEK1 (K97R) as substrate at 1 uM in presence of 32P-ATP by Hotspot assay relative to control; values are per cent of control.
Serine/threonine-protein kinase B-raf (Homo sapiens), sequence (P15056 whole entry): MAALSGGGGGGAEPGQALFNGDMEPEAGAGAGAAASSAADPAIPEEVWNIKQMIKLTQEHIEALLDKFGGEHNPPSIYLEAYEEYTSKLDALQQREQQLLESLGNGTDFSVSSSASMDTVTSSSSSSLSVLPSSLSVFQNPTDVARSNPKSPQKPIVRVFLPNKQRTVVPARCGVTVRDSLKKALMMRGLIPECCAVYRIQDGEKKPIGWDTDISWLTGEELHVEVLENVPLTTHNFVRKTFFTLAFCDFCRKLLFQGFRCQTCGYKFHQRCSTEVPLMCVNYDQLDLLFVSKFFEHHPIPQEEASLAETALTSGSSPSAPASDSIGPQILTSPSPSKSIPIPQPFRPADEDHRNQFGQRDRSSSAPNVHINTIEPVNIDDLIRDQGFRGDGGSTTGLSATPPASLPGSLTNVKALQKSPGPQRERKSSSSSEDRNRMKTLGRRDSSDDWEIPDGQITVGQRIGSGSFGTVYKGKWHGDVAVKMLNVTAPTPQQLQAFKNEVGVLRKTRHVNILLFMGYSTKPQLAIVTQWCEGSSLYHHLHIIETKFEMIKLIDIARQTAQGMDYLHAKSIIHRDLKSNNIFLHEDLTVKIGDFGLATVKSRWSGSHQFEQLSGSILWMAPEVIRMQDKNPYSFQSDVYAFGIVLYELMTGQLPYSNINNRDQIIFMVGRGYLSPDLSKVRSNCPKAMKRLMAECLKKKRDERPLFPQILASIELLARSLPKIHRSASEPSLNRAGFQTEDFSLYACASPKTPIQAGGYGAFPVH
Assay [6] has as its target Dual specificity mitogen-activated protein kinase kinase 2 (Homo sapiens) (UniProt P36507). The assay is described as follows: Inhibition of human MEK2 using ERK2 (K52R) as substrate at 1 uM in presence of 32P-ATP by Hotspot assay relative to control; values are per cent of control.
In assay [7] the target is T1, Dual specificity tyrosine-phosphorylation-regulated kinase 4 (Homo sapiens) (UniProt Q9NR20).
T1 sequence (whole entry): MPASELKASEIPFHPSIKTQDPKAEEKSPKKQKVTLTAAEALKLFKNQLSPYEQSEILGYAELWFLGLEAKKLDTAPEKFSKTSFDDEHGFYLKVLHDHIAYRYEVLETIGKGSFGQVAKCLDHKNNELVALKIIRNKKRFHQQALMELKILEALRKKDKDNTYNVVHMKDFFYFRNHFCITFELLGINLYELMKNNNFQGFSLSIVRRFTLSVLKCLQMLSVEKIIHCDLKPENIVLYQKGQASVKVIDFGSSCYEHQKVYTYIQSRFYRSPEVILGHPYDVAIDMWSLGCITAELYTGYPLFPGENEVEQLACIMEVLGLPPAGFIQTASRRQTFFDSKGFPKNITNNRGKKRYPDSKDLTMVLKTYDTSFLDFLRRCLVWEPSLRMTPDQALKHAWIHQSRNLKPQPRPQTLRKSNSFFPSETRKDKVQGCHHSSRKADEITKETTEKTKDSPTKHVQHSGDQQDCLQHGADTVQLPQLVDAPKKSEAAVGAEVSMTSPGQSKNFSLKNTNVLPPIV
The assay is described as follows: Inhibition of human DYRK4 using RRRFRPASPLRGPPK as substrate at 1 uM in presence of 32P-ATP by Hotspot assay relative to control; values are per cent of control.

The target in assay [8] is SRSF protein kinase 3 (Homo sapiens) (UniProt Q9UPE1). The assay is described as follows: Inhibition of human MSSK1/STK23 using GRSRSRSRSR as substrate at 1 uM in presence of 32P-ATP by Hotspot assay relative to control; values are per cent of control.
In assay [9] the target is Protein kinase C beta type (Homo sapiens) (UniProt P05771). The assay is described as follows: Inhibition of human PKCb1 using ERMRPRKRQGSVRRRV as substrate at 1 uM in presence of 32P-ATP by Hotspot assay relative to control; values are per cent of control.
For assay [10], the target named is Hepatocyte growth factor receptor (Homo sapiens) (UniProt P08581). The assay is described as follows: Inhibition of human c-MET using poly[Glu:Tyr] (4:1) as substrate at 1 uM in presence of 32P-ATP by Hotspot assay relative to control; values are per cent of control.
The target of assay [11] is Serine/threonine-protein kinase 10 (Homo sapiens) (UniProt O94804). The assay is described as follows: Inhibition of human LOK/STK10 using RLGRDKYKTLRQIRQ as substrate at 1 uM in presence of 32P-ATP by Hotspot assay relative to control; values are per cent of control.
Assay [12] concerns the target Interleukin-1 receptor-associated kinase 1 (Homo sapiens) (UniProt P51617). The assay is described as follows: Inhibition of human IRAK1 using myelin basic protein as substrate at 1 uM in presence of 32P-ATP by Hotspot assay relative to control; values are per cent of control.
Assay [13] concerns the target Tyrosine-protein kinase Fes/Fps (Homo sapiens) (UniProt P07332). The assay is described as follows: Inhibition of human FES/FPS using poly[Glu:Tyr] (4:1) as substrate at 1 uM in presence of 32P-ATP by Hotspot assay relative to control; values are per cent of control.
The target in assay [14] is Insulin receptor-related protein (Homo sapiens) (UniProt P14616). The assay is described as follows: Inhibition of human IRR/INSRR using myelin basic protein as substrate at 1 uM in presence of 32P-ATP by Hotspot assay relative to control; values are per cent of control.
Insulin receptor-related protein (Homo sapiens), sequence (P14616 27-742 limits assumed): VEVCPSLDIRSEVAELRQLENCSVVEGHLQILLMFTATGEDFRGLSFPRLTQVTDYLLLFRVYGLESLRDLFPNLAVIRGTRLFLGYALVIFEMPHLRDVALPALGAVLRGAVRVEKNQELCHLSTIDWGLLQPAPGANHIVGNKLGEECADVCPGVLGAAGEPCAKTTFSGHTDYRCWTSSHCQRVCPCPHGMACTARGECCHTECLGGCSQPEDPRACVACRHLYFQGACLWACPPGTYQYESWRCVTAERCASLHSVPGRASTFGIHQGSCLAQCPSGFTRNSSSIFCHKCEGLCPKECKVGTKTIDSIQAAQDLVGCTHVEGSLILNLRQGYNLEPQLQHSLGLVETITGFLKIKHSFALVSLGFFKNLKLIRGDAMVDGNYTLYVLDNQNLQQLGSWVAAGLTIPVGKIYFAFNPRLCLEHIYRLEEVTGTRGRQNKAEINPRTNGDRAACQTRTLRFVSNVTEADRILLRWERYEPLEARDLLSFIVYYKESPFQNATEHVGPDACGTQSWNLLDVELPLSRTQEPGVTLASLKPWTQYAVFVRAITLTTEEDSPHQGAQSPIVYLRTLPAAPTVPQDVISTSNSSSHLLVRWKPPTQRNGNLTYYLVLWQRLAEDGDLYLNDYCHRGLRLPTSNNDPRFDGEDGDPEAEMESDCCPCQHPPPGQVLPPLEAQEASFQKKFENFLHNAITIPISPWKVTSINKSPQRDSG
Insulin receptor-related protein (Homo sapiens), sequence (P14616 747-1297 limits assumed): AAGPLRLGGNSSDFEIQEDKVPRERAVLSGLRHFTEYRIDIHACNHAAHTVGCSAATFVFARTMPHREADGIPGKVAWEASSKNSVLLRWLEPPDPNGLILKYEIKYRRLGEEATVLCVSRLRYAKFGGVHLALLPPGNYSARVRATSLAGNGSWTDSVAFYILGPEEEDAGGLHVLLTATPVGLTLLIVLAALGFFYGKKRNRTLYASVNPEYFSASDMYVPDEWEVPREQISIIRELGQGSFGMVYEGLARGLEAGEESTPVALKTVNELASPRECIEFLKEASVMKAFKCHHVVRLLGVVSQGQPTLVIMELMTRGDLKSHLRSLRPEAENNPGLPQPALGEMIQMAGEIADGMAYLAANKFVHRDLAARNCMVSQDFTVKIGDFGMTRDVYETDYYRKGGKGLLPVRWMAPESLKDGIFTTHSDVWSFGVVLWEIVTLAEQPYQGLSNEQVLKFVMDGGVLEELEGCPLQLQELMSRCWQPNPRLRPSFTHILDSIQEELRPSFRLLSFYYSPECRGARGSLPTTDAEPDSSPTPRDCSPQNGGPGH
For assay [15], the target named is Mitogen-activated protein kinase kinase kinase kinase 4 (Homo sapiens) (UniProt O95819). The assay is described as follows: Inhibition of human HGK/MAP4K4 using myelin basic protein as substrate at 1 uM in presence of 32P-ATP by Hotspot assay relative to control; values are per cent of control.

Three compounds from ChEMBL document CHEMBL5649166, “RIP3 induces apoptosis independent of pronecrotic kinase activity” (Mol Cell, 2014) can be followed below.

As a reminder, the inhibition is the change of the read-out against control, counted positive when it falls.

Serine/threonine-protein kinase PAK 6 (Homo sapiens), sequence (Q9NQU5 whole entry, looked up): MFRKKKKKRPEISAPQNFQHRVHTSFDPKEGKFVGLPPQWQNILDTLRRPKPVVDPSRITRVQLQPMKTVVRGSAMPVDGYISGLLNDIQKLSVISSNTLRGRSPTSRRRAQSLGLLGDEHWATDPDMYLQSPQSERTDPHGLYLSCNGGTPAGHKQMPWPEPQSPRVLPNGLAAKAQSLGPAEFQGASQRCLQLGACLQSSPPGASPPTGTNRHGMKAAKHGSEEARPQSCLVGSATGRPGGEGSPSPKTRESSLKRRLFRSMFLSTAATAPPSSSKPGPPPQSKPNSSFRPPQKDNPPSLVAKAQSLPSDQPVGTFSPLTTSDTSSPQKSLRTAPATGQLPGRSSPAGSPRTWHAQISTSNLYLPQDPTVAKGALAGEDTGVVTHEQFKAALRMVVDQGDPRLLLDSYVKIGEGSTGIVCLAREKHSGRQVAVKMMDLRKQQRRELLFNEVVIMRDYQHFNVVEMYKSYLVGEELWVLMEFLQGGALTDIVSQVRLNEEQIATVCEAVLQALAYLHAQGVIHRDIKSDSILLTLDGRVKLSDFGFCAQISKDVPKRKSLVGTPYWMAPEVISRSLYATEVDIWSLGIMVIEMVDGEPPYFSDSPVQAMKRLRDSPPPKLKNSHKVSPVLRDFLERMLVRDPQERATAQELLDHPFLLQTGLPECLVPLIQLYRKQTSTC
Misshapen-like kinase 1 (Homo sapiens), sequence (Q8N4C8 whole entry, looked up): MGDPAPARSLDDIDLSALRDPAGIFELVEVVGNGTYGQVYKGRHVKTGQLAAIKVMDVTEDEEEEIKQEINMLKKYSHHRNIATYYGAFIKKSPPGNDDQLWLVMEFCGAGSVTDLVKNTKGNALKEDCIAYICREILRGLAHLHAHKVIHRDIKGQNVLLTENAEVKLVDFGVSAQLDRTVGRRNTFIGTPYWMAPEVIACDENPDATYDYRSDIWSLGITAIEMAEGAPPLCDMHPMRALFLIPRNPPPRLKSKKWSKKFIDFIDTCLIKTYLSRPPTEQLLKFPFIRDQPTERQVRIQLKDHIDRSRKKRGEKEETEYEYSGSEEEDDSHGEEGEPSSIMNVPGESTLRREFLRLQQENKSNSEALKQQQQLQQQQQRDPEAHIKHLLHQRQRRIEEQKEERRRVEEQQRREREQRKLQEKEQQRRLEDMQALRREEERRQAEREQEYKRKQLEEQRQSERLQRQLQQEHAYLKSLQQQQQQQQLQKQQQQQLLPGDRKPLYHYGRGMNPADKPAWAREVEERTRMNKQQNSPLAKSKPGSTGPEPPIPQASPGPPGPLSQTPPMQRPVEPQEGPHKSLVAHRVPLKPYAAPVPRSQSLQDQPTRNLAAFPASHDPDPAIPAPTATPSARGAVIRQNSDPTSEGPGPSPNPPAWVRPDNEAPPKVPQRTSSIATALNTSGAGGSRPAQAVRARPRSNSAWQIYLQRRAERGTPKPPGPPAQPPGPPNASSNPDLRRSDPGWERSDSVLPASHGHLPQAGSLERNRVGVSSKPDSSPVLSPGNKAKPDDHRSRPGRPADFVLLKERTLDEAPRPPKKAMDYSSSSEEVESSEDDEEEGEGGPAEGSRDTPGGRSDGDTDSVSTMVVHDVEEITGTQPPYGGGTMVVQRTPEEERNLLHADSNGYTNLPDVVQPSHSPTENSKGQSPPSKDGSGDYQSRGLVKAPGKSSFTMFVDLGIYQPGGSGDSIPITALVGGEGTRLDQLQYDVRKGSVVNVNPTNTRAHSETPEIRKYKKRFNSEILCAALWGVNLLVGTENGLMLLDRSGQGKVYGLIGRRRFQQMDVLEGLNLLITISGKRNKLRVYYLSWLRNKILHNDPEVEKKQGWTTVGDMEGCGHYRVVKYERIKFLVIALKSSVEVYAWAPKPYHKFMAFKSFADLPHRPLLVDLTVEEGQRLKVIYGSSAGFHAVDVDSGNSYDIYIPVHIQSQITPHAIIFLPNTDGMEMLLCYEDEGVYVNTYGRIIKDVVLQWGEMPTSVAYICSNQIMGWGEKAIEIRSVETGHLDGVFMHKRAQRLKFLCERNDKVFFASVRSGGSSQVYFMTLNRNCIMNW
High affinity nerve growth factor receptor (Homo sapiens), sequence (P04629 33-796 limits assumed): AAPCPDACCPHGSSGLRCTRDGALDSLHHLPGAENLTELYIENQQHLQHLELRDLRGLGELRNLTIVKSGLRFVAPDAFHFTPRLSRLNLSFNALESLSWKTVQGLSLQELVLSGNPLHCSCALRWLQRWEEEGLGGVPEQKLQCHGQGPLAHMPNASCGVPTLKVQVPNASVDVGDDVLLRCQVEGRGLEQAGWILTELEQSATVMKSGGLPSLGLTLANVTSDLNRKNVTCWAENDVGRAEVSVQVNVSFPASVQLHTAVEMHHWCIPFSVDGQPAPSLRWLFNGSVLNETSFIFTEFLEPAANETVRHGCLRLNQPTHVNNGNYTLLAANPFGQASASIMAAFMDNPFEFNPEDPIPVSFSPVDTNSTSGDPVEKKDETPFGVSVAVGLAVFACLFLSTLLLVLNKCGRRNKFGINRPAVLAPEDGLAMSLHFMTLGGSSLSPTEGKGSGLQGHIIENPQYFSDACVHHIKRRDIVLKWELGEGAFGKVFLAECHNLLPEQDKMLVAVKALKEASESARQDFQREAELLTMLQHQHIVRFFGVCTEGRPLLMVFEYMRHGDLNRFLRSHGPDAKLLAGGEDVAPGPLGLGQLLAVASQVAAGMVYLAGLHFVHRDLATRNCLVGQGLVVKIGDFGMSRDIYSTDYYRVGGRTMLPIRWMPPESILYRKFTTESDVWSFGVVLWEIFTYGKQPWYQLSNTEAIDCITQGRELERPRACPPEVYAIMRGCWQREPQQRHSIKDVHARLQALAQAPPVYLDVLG

As to `CNC(=O)c1ccc2c(c1)ncn2-c1ccc(CC(=O)OC(C)(C)C)cc1`, in assay [1], the inhibition came out at 79.5%. Besides, the residual activity came to 91.8% in assay [2]; 104% in assay [3]; 89.9% in [4]; 96.1% in assay [5]; 98.3% in assay [6]; 99.6% in assay [7]. The residual activity was found to be 101% in assay [8]; 95% in assay [9]; 92.4% in assay [10]; 96.8% in assay [11]; 78.6% in [12]; 98.1% in assay [13]. Besides, the residual activity in assay [14] was determined as 93.3%; in [15] it was 102%.
For `Cc1cc(-c2cnc(N)c3c(-c4ccc5scnc5c4)csc23)n(C)n1`, in assay [1], the inhibition was determined as 84.7%. Also, the residual activity in [2] came out at 19.5%; in [3], 85.9%; in assay [4], 106%; in assay [5] it was 79.6%; in [6], 97.8%; in [7], 98.2%. Moreover, the residual activity worked out at 93.7% in assay [8]; 96.1% in assay [9]; 76.8% in assay [10]; 78.2% in assay [11]; 90% in [12]; 95% in [13]. In addition, the results for the residual activity in [14] and in assay [15] were 86.7% and 21.2%, respectively.
With `CC(C)S(=O)(=O)c1ccc2nccc(Nc3ccc4scnc4c3)c2c1`, the inhibition in assay [1] is 89.3%. For the same compound, the residual activity in assay [2] came out at 94.6%; in assay [3] it was 106%; in assay [4], 98.5%; in assay [5], 90.2%; in [6], 105%; in [7], 102%. The residual activity in assay [8] amounted to 102%; in assay [9] it was 96.3%; in assay [10], 86.2%; in assay [11], 70.9%; in assay [12], 102%; in assay [13], 86.1%. Also, the residual activity in assay [14] was found to be 98.6%; in assay [15], 83%.
